This passage reports IC50 results from patent US20110092547A1 (priority 2007, published 2011).

SMILES strings stand for the structures. pIC50: −log10 of the molar value.

The experiment deals with T1, human DGAT1 (Homo sapiens, UniProt O75907).
T1 construct: made in house; host or cells: Sf9 insect cells (recombinant baculovirus); membrane fraction
T1 sequence (O75907 1-488): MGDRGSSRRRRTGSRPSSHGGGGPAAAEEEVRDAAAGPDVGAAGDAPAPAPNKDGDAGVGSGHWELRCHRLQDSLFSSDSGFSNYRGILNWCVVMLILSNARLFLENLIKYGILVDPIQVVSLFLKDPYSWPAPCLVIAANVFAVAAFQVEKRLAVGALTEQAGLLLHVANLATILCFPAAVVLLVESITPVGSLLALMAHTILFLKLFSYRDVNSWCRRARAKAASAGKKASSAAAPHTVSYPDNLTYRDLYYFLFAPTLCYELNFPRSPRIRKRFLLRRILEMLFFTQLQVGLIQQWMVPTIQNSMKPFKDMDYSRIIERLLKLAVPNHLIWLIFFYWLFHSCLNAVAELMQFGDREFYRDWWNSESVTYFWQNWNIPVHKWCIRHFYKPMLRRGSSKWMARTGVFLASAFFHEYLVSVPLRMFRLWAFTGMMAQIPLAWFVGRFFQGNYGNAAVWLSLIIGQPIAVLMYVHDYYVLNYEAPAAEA
Put plainly: Human enzyme assay, further developed assay (14C oleoyl CoA, 96 well plate). The format is biochemical. The note with it: human DGAT1 expressed in insect cell (sf9) membranes. As for the experimental part: The in vitro assay to identify DGAT1 inhibitors uses human DGAT1 expressed in insect cell membranes as the enzyme source (Proc. Natl. Acad. Sci. 1998, 95, 13018-13023). Briefly, sf9 cells were infected with recombinant baculovirus containing human DGAT1 coding sequences and harvested after 48 h. Cells were lysed by sonication and membranes isolated by centrifuging at 28000 rpm for 1 h at 4° C. on a 41% sucrose gradient. The membrane fraction at the interphase was collected, washed, and stored in liquid nitrogen.
In a further developed assay, DGAT1 activity was assayed by a modification of the method described by Coleman (Methods in Enzymology 1992, 209, 98-102). Compound at 0.00003-10 μM (final cone) was incubated with 25 μg/ml (final cone) membrane protein, 5 mM MgCl2, and 100 μM 1,2 dioleoyl-sn-glycerol in a total assay volume of 200 μl in a 96 well plate. The reaction was started by adding ^14C oleoyl coenzyme A (30 μM final concentration) and incubated at room temperature for 30 minutes. The reaction was stopped by adding 300 μl 2-propanol:heptane 7:1. Radioactive triolein product was separated into the organic phase by adding 200 μl heptane and 200 μl 0.1 M carbonate buffer pH 9.5. DGAT1 activity was quantified by counting aliquots of the upper heptane layer by liquid scintillography.
What is called pIC50 is −log10 of the IC50, conventionally taken in molar units. With `O=C(Nc1ccc(O[C@H]2CC[C@@H](C(=O)O)CC2)nc1)c1nnc(Nc2cccc(Cl)c2)o1` [Example 7, (1s,4s)-4-(5-(5-(3-chlorophenylamino)-1,3,4-oxadiazole-2-carboxamido)pyridin-2-yloxy)cyclohexanecarboxylic acid], the negative-log IC50 (pIC50) is 8.00. The result for `COc1cc(O[C@H]2CC[C@@H](C(=O)O)CC2)ncc1NC(=O)c1nnc(Nc2ccc(F)c(F)c2)o1` [Example 43, (1s,4s)-4-(5-(5-(3,4-Difluorophenylamino)-1,3,4-oxadiazole-2-carboxamido)-4-methoxypyridin-2-yloxy)cyclohexanecarboxylic acid] reads 7.30. On to `Cc1ccc(Nc2nnc(C(=O)Nc3ccc(O[C@H]4CC[C@H](C(=O)O)CC4)nc3)o2)cc1Cl` [Example 26, (1r,4r)-4-(5-(5-(3-chloro-4-methyl-phenylamino)-1,3,4-oxadiazole-2-carboxamido)pyridin-2-yloxy)cyclo-hexane-carboxylic acid], for which the negative logarithm of the IC50 (pIC50) is 7.89. Compound `O=C(O)C[C@H]1CC[C@@H](Oc2ccc(NC(=O)c3nnc(Nc4ccc(Cl)cc4Cl)o3)cn2)CC1` [Example 54, 2-((1s,4s)-4-(5-(5-(2,4-Dichlorophenylamino)-1,3,4-oxadiazole-2-carboxamido)pyridin-2-yloxy)cyclohexyl)acetic acid] showed a negative logarithm of the IC50 (pIC50) of 8.08. The pIC50 values of the last two compounds are within 0.2 log units of each other. The result for `CC(C)(C)c1ccc(Nc2nnc(C(=O)Nc3ccc(O[C@H]4CC[C@@H](C(=O)O)CC4)nc3)o2)cc1` [Example 9, (1s,4s)-4-(5-(5-(4-tert-butylphenylamino)-1,3,4-oxadiazole-2-carboxamido)pyridin-2-yloxy)cyclohexanecarboxylic acid] reads 7.26; that for `COc1nc(O[C@H]2CC[C@@H](C(=O)O)CC2)ccc1NC(=O)c1nnc(Nc2ccc(F)c(F)c2)o1` [Example 51, (1s,4s)-4-(5-(5-(3,4-Difluorophenylamino)-1,3,4-oxadiazole-2-carboxamido)-6-methoxypyridin-2-yloxy)cyclohexanecarboxylic acid], 7.54; that for `COc1cc(O[C@H]2CC[C@@H](C(=O)O)CC2)ncc1NC(=O)c1nnc(Nc2ccc(Br)cc2Cl)o1` [Example 44], 7.27. `CC(C)c1ccc(Nc2nnc(C(=O)Nc3ccc(O[C@H]4C[C@H](C(=O)O)C4)nc3)o2)cc1` [Example 64] gave a pIC50 of 8.72. The result for `Cc1cc(O[C@H]2CC[C@@H](C(=O)O)CC2)ncc1NC(=O)c1nnc(Nc2ccc(F)c(F)c2)o1` [Example 40, (1s,4s)-4-(5-(5-(3,4-Difluorophenylamino)-1,3,4-oxadiazole-2-carboxamido)-4-methylpyridin-2-yloxy)cyclohexanecarboxylic acid] reads 8.46. The result for `O=C(Nc1ccc(O[C@H]2CC[C@@H](C(=O)O)CC2)nc1F)c1nnc(Nc2ccc(F)c(F)c2)o1` [Example 50, (1s,4s)-4-(5-(5-(3,4-Difluorophenylamino)-1,3,4-oxadiazole-2-carboxamido)-6-fluoropyridin-2-yloxy)cyclohexanecarboxylic acid] reads 8.47; that for `O=C(Nc1ccc(O[C@H]2CC[C@H](C(=O)O)CC2)nc1)c1nnc(Nc2cccc(Cl)c2)o1` [Example 27, (1r,4r)-4-(5-(5-(3-chloro-phenylamino)-1,3,4-oxadiazole-2-carboxamido)pyridin-2-yloxy)cyclo-hexane-carboxylic acid], 7.72. For `COc1cc(NC(=O)c2nnc(Nc3ccc(F)c(Cl)c3)o2)cnc1O[C@H]1CC[C@@H](C(=O)O)CC1` [Example 56, (1s,4s)-4-(5-(5-(3-Chloro-4-fluorophenylamino)-1,3,4-oxadiazole-2-carboxamido)-3-methoxypyridin-2-yloxy)cyclohexanecarboxylic acid] the value was 6.82.

`O=C(Nc1ccc(O[C@H]2C[C@@H](C(=O)O)C2)nc1)c1nnc(Nc2ccc(F)c(F)c2)o1` [Example 65, cis-3-(5-(5-(3,4-difluorophenylamino)-1,3,4-oxadiazole-2-carboxamido)pyridin-2-yloxy)cyclobutanecarboxylic acid] had a pIC50 of 7.59. This pIC50 is 0.77 log units higher than that of the compound before.
